The values below are quoted from earlier work in patent publication US20190054051A1, “DOPA Formulations for Treatments of Parkinson's Disease” (The Board of Trustees of the Leland Stanford Junior …, priority 2017, published 2019).

The conditions of series [1]: cited from earlier work.
Another series relates to animal models of PD. Particulars: previously reported; cited from earlier work.

As for `C[C@@](Cc1ccc(O)c(O)c1)(NN)C(=O)O` [Carbidopa, N-amino-α-methyl-3-hydroxy-L-tyrosine monohydrate], the solubility in water entry in series [1] was “slightly soluble in water”.
Turning to `NC(N)=Nc1nc(CSCCC(N)=NS(N)(=O)=O)cs1` [famotidine], the “L-DOPA induced dyskinesia (dyskinetic behavior following DOPA treatment)” value in the series with animal models of PD was “decreased the dyskinetic behavior”.
